Earlier results as cited in patent US20110281920A1, “INJECTABLE PARASITICIDAL FORMULATIONS OF LEVAMISOLE AND MACROCYCLIC LACTONES” (priority 2010, published 2011).

How the values were obtained:
[1] = lactating mammals; ratio of 1 = even distribution between milk and plasma

Compound	milk to plasma partition ratio [1]	Solubility in water
eprinomectin	~0.2	nearly water insoluble
c1ccc([C@H]2CN3CCSC3=N2)cc1 [Levamisole]		water soluble
